The test has as its target T1, T1R umami taste receptor (Homo sapiens, UniProt Q7RTX0+Q7RTX1).
T1 sequence (Q7RTX1 21-841): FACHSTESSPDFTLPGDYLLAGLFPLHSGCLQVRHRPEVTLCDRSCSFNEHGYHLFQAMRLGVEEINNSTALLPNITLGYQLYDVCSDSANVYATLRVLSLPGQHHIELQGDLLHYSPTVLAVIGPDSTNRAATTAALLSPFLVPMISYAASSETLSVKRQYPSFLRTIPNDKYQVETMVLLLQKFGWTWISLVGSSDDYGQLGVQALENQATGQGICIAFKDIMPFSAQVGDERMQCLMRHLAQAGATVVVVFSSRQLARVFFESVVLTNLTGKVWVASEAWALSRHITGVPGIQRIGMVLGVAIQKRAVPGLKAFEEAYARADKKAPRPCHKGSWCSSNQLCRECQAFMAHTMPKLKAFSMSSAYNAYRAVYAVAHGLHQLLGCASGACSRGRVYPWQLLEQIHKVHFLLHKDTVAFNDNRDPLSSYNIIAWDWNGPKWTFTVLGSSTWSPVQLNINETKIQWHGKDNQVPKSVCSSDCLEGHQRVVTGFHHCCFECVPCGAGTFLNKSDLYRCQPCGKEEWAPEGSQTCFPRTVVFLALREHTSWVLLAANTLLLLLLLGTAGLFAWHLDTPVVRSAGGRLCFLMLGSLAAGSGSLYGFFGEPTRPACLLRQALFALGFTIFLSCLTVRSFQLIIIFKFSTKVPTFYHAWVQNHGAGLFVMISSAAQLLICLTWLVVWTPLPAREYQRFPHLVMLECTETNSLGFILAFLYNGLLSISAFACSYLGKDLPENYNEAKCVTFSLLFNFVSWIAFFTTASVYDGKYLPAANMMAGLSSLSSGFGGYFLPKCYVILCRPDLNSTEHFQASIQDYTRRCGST
T1 sequence (Q7RTX0 21-852): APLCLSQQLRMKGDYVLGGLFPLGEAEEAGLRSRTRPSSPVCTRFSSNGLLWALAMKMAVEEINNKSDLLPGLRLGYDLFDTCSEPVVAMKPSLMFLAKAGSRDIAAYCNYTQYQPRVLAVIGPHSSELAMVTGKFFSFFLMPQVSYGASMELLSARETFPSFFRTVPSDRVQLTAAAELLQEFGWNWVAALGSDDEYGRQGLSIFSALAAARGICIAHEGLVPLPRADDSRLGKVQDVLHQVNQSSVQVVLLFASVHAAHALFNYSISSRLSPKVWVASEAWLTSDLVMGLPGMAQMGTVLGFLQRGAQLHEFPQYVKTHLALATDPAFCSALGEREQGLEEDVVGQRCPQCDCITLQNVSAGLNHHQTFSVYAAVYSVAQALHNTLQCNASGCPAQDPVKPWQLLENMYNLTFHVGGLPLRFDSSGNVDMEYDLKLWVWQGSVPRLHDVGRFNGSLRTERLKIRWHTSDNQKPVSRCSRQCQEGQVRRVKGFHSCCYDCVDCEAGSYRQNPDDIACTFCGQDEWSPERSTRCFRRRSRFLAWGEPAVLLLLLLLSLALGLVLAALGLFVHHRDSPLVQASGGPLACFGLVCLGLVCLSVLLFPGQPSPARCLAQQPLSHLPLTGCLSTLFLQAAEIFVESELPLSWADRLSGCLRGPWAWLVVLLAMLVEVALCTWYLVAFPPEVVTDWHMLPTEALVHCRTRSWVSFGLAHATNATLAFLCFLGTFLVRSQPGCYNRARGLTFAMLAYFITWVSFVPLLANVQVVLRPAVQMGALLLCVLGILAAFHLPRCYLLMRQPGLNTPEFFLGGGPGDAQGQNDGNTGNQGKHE
The test can be described thus: in vitro cell-based assay, enhancement of MSG binding. The conditions noted are these: cells that express the T1R umami taste receptor. The protocol:
Each of the compounds set forth in Table 2 were synthesized according to one of the general procedures set forth above in Example 1 or 2. Thereafter, the compounds were tested in an in vitro cell-based assay having cells that express the T1R umami taste receptor. Dose-binding curves were recorded and the EC50 was determined for enhancement of MSG binding. Table 2 sets forth the calculated EC50 values for certain tested compounds.

pEC50: −log10 of the molar value. Bounds are passed on as bounds.

As a reminder, the pEC50 is the EC50 on a negative log10 scale, so that one unit is a factor of ten. Consider `O=C(NCCC[C@H](NC(=O)c1ccccc1)C(=O)O)c1ccccc1` [Compound 101], for which the pEC50 is under 4.30.

With `COC(=O)[C@H](CCCNC(=O)c1ccccc1)NC(=O)c1ccccc1` [Compound 102], the pEC50 is 4.52.

For `CCOC(=O)[C@H](CCCNC(=O)c1ccccc1)NC(=O)c1ccccc1` [Compound 103], the negative logarithm of the EC50 (pEC50) is 5.70.

In the case of `CCOC(=O)[C@H](CCCNC(=O)c1ccc(C)c(C)c1)NC(=O)c1ccc(C)c(C)c1` [Compound 104], the pEC50 was 4.85.

Take `CCOC(=O)[C@H](CCCNC(=O)c1ccc2c(c1)OCO2)NC(=O)c1ccc2c(c1)OCO2` [Compound 105]: the pEC50 is 4.46.

With `C/C=C(\C)C(=O)NCCC[C@H](NC(=O)c1ccccc1)C(=O)OC` [Compound 106], the pEC50 was 5.46.

With `C/C=C(\C)C(=O)NCCC[C@H](NC(=O)c1ccccc1)C(=O)OCC` [Compound 107], the pEC50 was 5.10.

Take `C/C=C(\C)C(=O)NCCC[C@H](NC(=O)c1ccc(C)cc1)C(=O)OC` [Compound 108]: the pEC50 was 5.60.

As for `C/C=C(\C)C(=O)NCCC[C@H](NC(=O)c1ccc(C)cc1)C(=O)OCC` [Compound 109], the pEC50 was 5.82.

As for `C/C=C(\C)C(=O)NCCC[C@H](NC(=O)c1ccc(OC)cc1)C(=O)OC` [Compound 110], the pEC50 was 6.15.

For the compound `C/C=C(\C)C(=O)NCCC[C@H](NC(=O)c1ccc(OC)cc1)C(=O)OCC` [Compound 111], the pEC50 is 6.40.

As to `C/C=C(\C)C(=O)NCCC[C@H](NC(=O)c1ccc(C)c(C)c1)C(=O)OC` [Compound 112], the pEC50 was over 7.00.

In the case of `C/C=C(\C)C(=O)NCCC[C@H](NC(=O)c1ccc(C)c(C)c1)C(=O)OCC` [Compound 113], the pEC50 is 6.30.

Turning to `C/C=C(\C)C(=O)NCCC[C@H](NC(=O)c1cc(C)c(C)c(C)c1)C(=O)OC` [Compound 114], the negative logarithm of the EC50 (pEC50) is 6.40.

For the compound `C/C=C(\C)C(=O)NCCC[C@H](NC(=O)c1cc(C)c(C)c(C)c1)C(=O)OCC` [Compound 115], the pEC50 was 7.40.

On to `C/C=C(\C)C(=O)NCCC[C@H](NC(=O)c1ccc2c(c1)OCO2)C(=O)OCC` [Compound 121], for which the negative-log EC50 (pEC50) was 6.30.

On to `C/C=C(\C)C(=O)NCCC[C@H](NC(=O)/C=C/c1ccccc1)C(=O)OC` [Compound 122], for which the negative-log EC50 (pEC50) is 6.70.

Turning to `C/C=C(\C)C(=O)NCCC[C@H](NC(=O)/C=C/c1ccccc1)C(=O)OCC` [Compound 123], the pEC50 is 6.22.

Turning to `C/C=C(\C)C(=O)NCCC[C@H](NC(=O)/C=C/c1ccccc1OC)C(=O)OC` [Compound 124], the pEC50 was 6.30.

With `C/C=C(\C)C(=O)NCCC[C@H](NC(=O)/C=C/c1ccc(OC)cc1)C(=O)OC` [Compound 128], the pEC50 was 6.19.

As for `C/C=C(\C)C(=O)NCCC[C@H](NC(=O)/C=C/c1ccc(OC)cc1)C(=O)OCC` [Compound 129], the pEC50 was 7.22.

As to `C/C=C(\C)C(=O)NCCC[C@H](NC(=O)/C=C/c1ccc(OC)cc1OC)C(=O)OC` [Compound 132], the pEC50 was 7.00.

With `C/C=C(\C)C(=O)NCCC[C@H](NC(=O)/C=C/c1ccc(OC)cc1OC)C(=O)OCC` [Compound 133], the pEC50 was 6.40.

(Values after US20240156140A1, “AMIDE COMPOUNDS AND THEIR USE AS FLAVOR MODIFIERS” (Firmenich Incorporated, priority 2021, published 2024).)
